Where two headings read alike, the source gives them in different places.
Legend:
[1] = Plasma pharmacokinetics (LC-MS/MS, noncompartmental) in phase I patients; format: in vivo, human; conditions: for Cmax / AUC: human, plasma, oral; for AUC: read-out: AUC0−τ
Method: Pharmacokinetic studies were performed in all patients. Ethylenediaminetetraacetic acid blood samples were collected during the first cycle: on day 1 before the first drug intake and 0.5, 1, 2, 4, 6, 8, 12 and 24 h after administration; on days 3, 8 and 15 before the morning drug intake and 2 h after administration; and on day 22 before the morning drug intake and 0.5, 1, 2, 4, 6, 8, 12 and 24 h after administration. Samples were immediately put on ice and centrifuged at 4°C for 10 min at 1500 g. The resulting plasma was stored at −70°C until analysis. Plasma samples of the last three patients were not measured as the study was stopped before analysis.
The total plasma concentrations of AZD3409 ester and AZD3409 acid were determined by LC–MS/MS. The plasma samples were treated with dithiothreitol to reduce any disulphide bonds. The sample pretreatment was based on protein precipitation with acidic acetonitrile. Isotopically labelled analogues were used as internal standards. The method has been validated regarding selectivity, accuracy, precision and stability in human plasma. The lower limit of quantification was 3 ng ml^−1 for both AZD3409 ester and AZD3409 acid, with a 50 μl sample volume.
The following PK parameters were determined, either by direct observation or by noncompartmental analysis (WinNonlin, version 5.0.1; Pharsight, Mountain View, CA, USA): the minimal plasma concentration (Cmin), the maximal plasma concentration (Cmax), the area under the curve within one dosing interval (AUC0−τ) and total plasma clearance (Cl/F). Correlations between dose and Cmax levels and between dose and AUC0−τ were analysed on day 1 using the nonparametric Spearman's ρ (Rs) correlation test. Accumulation was tested with an exact Wilcoxon's rank paired signed test. Linear measures mixed effects models were constructed with SAS (SAS Institute Inc., Cary, NC, USA) to determine the effect of the dose on the trough plasma concentrations of both metabolites. The daily dose, time (days), gender and age were considered to be a fixed effect, and the patient variable was considered to be a random effect. Owing to the distribution of the trough plasma concentration log transformation was applied.

[2] = Phase I dose escalation, toxicity (CTC v2.0) in patients with advanced solid malignancies; format: in vivo
Method: The study was divided into two parts. Part A was an open-label dose-escalation study to define the maximum tolerated dose (MTD). Part B was an enrichment phase in female patients having advanced breast cancer for whom there was no standard therapy available.
AZD3409 was administered continuously starting on day 1 of each cycle of 21 days. A modified Fibonacci schedule was used for dose escalation, starting from 500 mg AZD3409. […] At least three patients were treated at each dose level. The occurrence of a DLT in a patient during the first cycle led to enrolment of three additional patients. Patients with progressive disease were removed from the study and patients who were removed within the first cycle of the study for reasons other than drug-related toxicity were replaced.
Pretreatment evaluation included a complete medical history and physical examination. Measurable and evaluable disease was documented before the start of the study and during the study as a basis for the assessment of clinical activity of the treatment. Tumour response was recorded according to RECIST criteria ([Therasse et al, 2000]). Toxicity was monitored at each visit. […] DLT was defined as any of the following events during the first treatment cycle: grade 3 or 4 anaemia or thrombocytopaenia, febrile neutropaenia grade 3, or grade 4 neutropaenia, grade 3 or 4 biochemical toxicity, grade 2 (or worse) nausea and vomiting despite optimal antiemetic therapy, grade 3 or 4 diarrhoea despite optimal loperamide support, failure to take study medication for 7 days or more within the first treatment cycle due to drug-related toxicity or any CTC grade 3 or 4 nonhaematological toxicity (excluding alopaecia). The MTD was defined as the dose below the dose at which two or three of three, or two or more of six patients experienced DLT during cycle 1.

[3] = 500 mg once daily, day 1, dose 500 (once daily), N=3, mean (SD)
[4] = 500 mg once daily, day 22, dose 500 (once daily), N=2, absolute values
[5] = 750 mg b.i.d., day 1, dose 750 b.i.d., N=8, mean (SD)
[6] = 750 mg b.i.d., day 22, dose 750 b.i.d., N=3, mean (SD)
[7] = 1000 mg once daily, day 1, dose 1000 (once daily), N=3, mean (SD)
[8] = 1000 mg once daily, day 22, dose 1000 (once daily), N=3, mean (SD)
[9] = 1250 mg b.i.d., day 1, dose 1250 b.i.d., N=6, mean (SD)
[10] = 1250 mg b.i.d., day 22, dose 1250 b.i.d., N=4, mean (SD)
[11] = 1500 mg b.i.d., day 1, dose 1500 b.i.d., N=2, absolute values
[12] = 1750 mg b.i.d., day 1, dose 1750 b.i.d., N=4, mean (SD)
[13] = 1750 mg b.i.d., day 22, dose 1750 b.i.d., N=1
[14] = all dose levels, drug-related nonhaematological toxicity
[15] = cycle 1, 250 mg b.i.d. (part B, fed state), 3 patients
[16] = cycle 1, 750 mg b.i.d., 8 patients
[17] = cycle 1, 1250 mg b.i.d., 6 patients
[18] = cycle 1, 1500 mg b.i.d., 2 patients
[19] = cycle 1, 1750 mg b.i.d., 4 patients
[20] = cycle 1, all doses, 29 patients

CSCC[C@H](NC(=O)c1cc(NC[C@@H]2C[C@H](S)CN2)ccc1CCc1ccc(F)cc1)C(=O)O [AZD3409 acid]
mean time at which Cmax was reached ([1]; cycle 1, plasma): 2.7 h
Spearman correlation (Rs) between dose and AUC ([1]; day 1): 0.52
Spearman correlation (Rs) between dose and Cmax ([1]; day 1): 0.43
Cl/F ([1]; day 22, dose 500 (once daily), N=2, absolute values): [465–488] l h^−1
Cl/F ([1]; day 22, dose 750 b.i.d., N=3, mean (SD)): 473 (155) l h^−1
Cl/F ([1]; day 22, dose 1000 (once daily), N=3, mean (SD)): 710 (148) l h^−1
Cl/F ([1]; day 22, dose 1250 b.i.d., N=4, mean (SD)): 785 (311) l h^−1
Cl/F ([1]; day 22, dose 1750 b.i.d., N=1): 1706 L/h
Ratio AUC0−τ day 22/day 1 ([1]; dose 500 (once daily), N=2, absolute values): [2.07–10.1]
Ratio AUC0−τ day 22/day 1 ([1]; dose 750 b.i.d., N=3, mean (SD)): 9.29 (11.2)
Ratio AUC0−τ day 22/day 1 ([1]; dose 1000 (once daily), N=3, mean (SD)): 2.10 (1.19)
Ratio AUC0−τ day 22/day 1 ([1]; dose 1250 b.i.d., N=4, mean (SD)): 1.95 (1.05)
Ratio AUC0−τ day 22/day 1 ([1]; dose 1750 b.i.d., N=1): 1.23
Cmax [1, 3]: 33.6 ng/mL
AUC [1, 3]: 160 ng·h/mL
Cmax [1, 4]: 95.9 to 111 ng/mL
AUC [1, 4]: 712 to 775 ng·h/mL
Cmax [1, 5]: 93.8 ng/mL
AUC [1, 5]: 468 ng·h/mL
Cmax [1, 6]: 138 ng/mL
AUC [1, 6]: 934 ng·h/mL
Cmax [1, 7]: 78.6 ng/mL
AUC [1, 7]: 512 ng·h/mL
Cmax [1, 8]: 106 ng/mL
AUC [1, 8]: 904 ng·h/mL
Cmax [1, 9]: 119 ng/mL
AUC [1, 9]: 677 ng·h/mL
Cmax [1, 10]: 168 ng/mL
AUC [1, 10]: 1230 ng·h/mL
Cmax [1, 11]: 83.5 to 148 ng/mL
AUC [1, 11]: 458 to 749 ng·h/mL
Cmax [1, 12]: 140 ng/mL
AUC [1, 12]: 751 ng·h/mL
Cmax [1, 13]: 165 ng/mL
AUC [1, 13]: 466 ng·h/mL
mean trough total AZD3409 acid concentrations ([1]; twice daily dosing levels): 36.3 to 81.9 ng/mL
chance to suffer from vomiting (grade 1–2) due to the medication ([2]; at maximal AZD3409 acid plasma concentrations up to 140 ng ml^−1, cycle 1, n=22): below 15%

CSCC[C@H](NC(=O)c1cc(NC[C@@H]2C[C@H](SC(=O)c3cccnc3)CN2)ccc1CCc1ccc(F)cc1)C(=O)OC(C)C [AZD3409]
appearance of parent drug in blood ([1]; after oral administration, rapidly metabolised in the gut and plasma to AZD3409 ester): does not appear in the blood
dose-limiting gastrointestinal toxicity (grade 3 diarrhoea, grade 3 dehydration, grade 2/3 nausea, grade 2 vomiting) ([2]; 1250 mg b.i.d.): three out of six patients
dose-limiting toxicity: unable to continue due to grade 3 diarrhoea and uncontrolled nausea (grade 2), respectively ([2]; 1500 mg b.i.d.): two patients
dose-limiting toxicity: unable to take the drug due to CTC grade 2 vomiting in spite of antiemetics ([2]; 1750 mg b.i.d.): two patients
diarrhoea, patients reporting [2, 14]: 41%
nausea, patients reporting [2, 14]: 55%
vomiting, patients reporting [2, 14]: 55%
haematological toxicity ([2]; cycle 1, 29 evaluable patients): No significant haematological toxicity
Nausea grade 1–2, number of patients [2, 15]: 1
Vomiting grade 1–2, number of patients [2, 15]: 2
Anorexia grade 1–2, number of patients ([2]; cycle 1, 500 mg, 3 patients): 1
Fatigue grade 1–2, number of patients ([2]; cycle 1, 500 mg, 3 patients): 1
Nausea grade 1–2, number of patients ([2]; cycle 1, 500 mg, 3 patients): 1
Vomiting grade 1–2, number of patients ([2]; cycle 1, 500 mg, 3 patients): 1
Abdominal pain grade 1–2, number of patients [2, 16]: 1
Anorexia grade 1–2, number of patients [2, 16]: 2
Diarrhoea grade 1–2, number of patients [2, 16]: 3
Fatigue grade 1–2, number of patients [2, 16]: 2
Nausea grade 1–2, number of patients [2, 16]: 5
Vomiting grade 1–2, number of patients [2, 16]: 4
Diarrhoea grade 1–2, number of patients ([2]; cycle 1, 1000 mg, 3 patients): 3
Nausea grade 1–2, number of patients ([2]; cycle 1, 1000 mg, 3 patients): 2
Vomiting grade 1–2, number of patients ([2]; cycle 1, 1000 mg, 3 patients): 2
Abdominal pain grade 1–2, number of patients [2, 17]: 2
Anorexia grade 1–2, number of patients [2, 17]: 1
Diarrhoea grade 1–2, number of patients [2, 17]: 2
Diarrhoea grade 3–4, number of patients [2, 17]: 1
Fatigue grade 1–2, number of patients [2, 17]: 1
Nausea grade 1–2, number of patients [2, 17]: 3
Nausea grade 3–4, number of patients [2, 17]: 1
Vomiting grade 1–2, number of patients [2, 17]: 3
Diarrhoea grade 3–4, number of patients [2, 18]: 1
Nausea grade 1–2, number of patients [2, 18]: 1
Vomiting grade 1–2, number of patients [2, 18]: 1
Anorexia grade 1–2, number of patients [2, 19]: 2
Diarrhoea grade 1–2, number of patients [2, 19]: 4
Fatigue grade 1–2, number of patients [2, 19]: 1
Nausea grade 1–2, number of patients [2, 19]: 3
Vomiting grade 1–2, number of patients [2, 19]: 3
Abdominal pain grade 1–2, total [2, 20]: 3 (10) n (%)
Anorexia grade 1–2, total [2, 20]: 6 (21) n (%)
Diarrhoea grade 1–2, total [2, 20]: 12 (41) n (%)
Diarrhoea grade 3–4, total [2, 20]: 2 (7) n (%)
Fatigue grade 1–2, total [2, 20]: 5 (17) n (%)
Nausea grade 1–2, total [2, 20]: 16 (55) n (%)
Nausea grade 3–4, total [2, 20]: 1 (3) n (%)
Vomiting grade 1–2, total [2, 20]: 16 (55) n (%)
MTD of part A ([2]; patients, fasted state, continuous oral dosing): 750 mg b.i.d.
